Data on 28 compounds can be found in US20230167073A1 (Teijin Pharma Limited, priority 2020, published 2023).

The target in this assay is T1, Human TRPC6 (Homo sapiens, UniProt Q9Y210).
T1 construct: expressed in transfected cells
T1 sequence (Q9Y210 1-931): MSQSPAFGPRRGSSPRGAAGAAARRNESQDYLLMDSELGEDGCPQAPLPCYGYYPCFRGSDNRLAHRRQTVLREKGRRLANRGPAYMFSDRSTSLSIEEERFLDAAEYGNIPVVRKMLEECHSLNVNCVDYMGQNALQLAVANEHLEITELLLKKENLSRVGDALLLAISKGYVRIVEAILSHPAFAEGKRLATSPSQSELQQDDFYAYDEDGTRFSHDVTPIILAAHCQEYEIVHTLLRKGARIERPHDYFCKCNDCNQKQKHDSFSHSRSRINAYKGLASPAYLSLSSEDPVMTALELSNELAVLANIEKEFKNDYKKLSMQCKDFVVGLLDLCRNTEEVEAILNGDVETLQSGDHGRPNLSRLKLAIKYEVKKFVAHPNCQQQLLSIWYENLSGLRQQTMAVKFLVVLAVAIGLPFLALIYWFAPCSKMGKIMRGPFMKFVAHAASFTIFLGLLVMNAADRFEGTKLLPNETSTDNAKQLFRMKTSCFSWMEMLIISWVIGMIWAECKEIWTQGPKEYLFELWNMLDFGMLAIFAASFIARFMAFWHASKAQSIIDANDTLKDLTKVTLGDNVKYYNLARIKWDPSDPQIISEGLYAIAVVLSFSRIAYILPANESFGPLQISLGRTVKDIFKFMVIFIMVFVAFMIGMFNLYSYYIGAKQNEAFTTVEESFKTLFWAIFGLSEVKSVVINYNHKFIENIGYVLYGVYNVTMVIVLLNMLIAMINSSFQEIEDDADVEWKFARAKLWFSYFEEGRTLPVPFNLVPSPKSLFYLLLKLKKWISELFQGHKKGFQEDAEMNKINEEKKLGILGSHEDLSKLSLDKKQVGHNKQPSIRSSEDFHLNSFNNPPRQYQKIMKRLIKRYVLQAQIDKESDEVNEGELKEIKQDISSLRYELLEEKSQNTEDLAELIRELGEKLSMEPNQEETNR
In words: Evaluation of TRPC6 channel inhibitory activity (1), FLIPR Calcium 5 Assay Kit, OAG stimulation (Compound Nos. 1-1293). Format: cell-based. The following applies: Human TRPC6 stably-expressing cells, OAG 30 μM, FLIPR Calcium 5 Assay Kit; read-out: Inhibitory activity (pIC50 class) (converted). A digest of the protocol:
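Readout is pIC50 from four-parameter logistic fitting of inhibition of the OAG-evoked (30 μM final) fluorescence calcium signal. Human TRPC6 stable cells are dye-loaded with probenecid, and compound is applied 20 min ahead of agonist.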

`Cc1nc(Oc2cc(C#N)ccc2-c2ncc(CN)cn2)cc(N2CCCC2=O)n1` [compound 851, 4-[5-(aminomethyl)pyrimidin-2-yl]-3-[2-methyl-6-(2-oxopyrrolidin-1-yl)pyrimidin-4-yl]oxybenzonitrile]: the IC50 is greater than 1 µM.

As to `Cc1nc(Oc2cc(C#N)ccc2-c2ncc(CN)cn2)cc(N(C)C2COC2)n1` [compound 852, 4-[5-(aminomethyl)pyrimidin-2-yl]-3-[2-methyl-6-[methyl(oxetan-3-yl)amino]pyrimidin-4-yl]oxybenzonitrile], the IC50 is greater than 1 µM.

Regarding `Cc1nc(Oc2cc(C#N)ccc2-c2ncc(CCN)cn2)cc(N2CCC2)n1` [compound 853, 4-[5-(2-aminoethyl)pyrimidin-2-yl]-3-[6-(azetidin-1-yl)-2-methylpyrimidin-4-yl]oxybenzonitrile], the IC50 is 0.01 to 1 µM.

Consider `CCN(C)c1cc(Oc2cc(C#N)ccc2-c2ncc(CCN)cn2)nc(C)n1` [compound 854, 4-[5-(2-aminoethyl)pyrimidin-2-yl]-3-[6-[ethyl(methyl)amino]-2-methylpyrimidin-4-yl]oxybenzonitrile], for which the IC50 is less than 0.01 µM.

In the case of `Cc1nc(Oc2cc(C#N)ccc2-c2ncc(CCN)cn2)cc(N2CCC2=O)n1` [compound 855, 4-[5-(2-aminoethyl)pyrimidin-2-yl]-3-[2-methyl-6-(2-oxoazetidin-1-yl)pyrimidin-4-yl]oxybenzonitrile], the IC50 is 0.01 to 1 µM.

Consider `CCN(CC)c1cc(Oc2cc(C#N)ccc2-c2ncc(CCN)cn2)nc(C)n1` [compound 856, 4-[5-(2-aminoethyl)pyrimidin-2-yl]-3-[6-(diethylamino)-2-methylpyrimidin-4-yl]oxybenzonitrile], for which the IC50 is less than 0.01 µM.

As for `Cc1nc(Oc2cc(C#N)ccc2-c2ncc(CCN)cn2)cc(N(C)C(C)C)n1` [compound 857, 4-[5-(2-aminoethyl)pyrimidin-2-yl]-3-[2-methyl-6-[methyl(propan-2-yl)amino]pyrimidin-4-yl]oxybenzonitrile], the IC50 is less than 0.01 µM.

In the case of `Cc1nc(Oc2cc(C#N)ccc2-c2ncc(CCN)cn2)cc(N2CC(F)C2)n1` [compound 858, 4-[5-(2-aminoethyl)pyrimidin-2-yl]-3-[6-(3-fluoroazetidin-1-yl)-2-methylpyrimidin-4-yl]oxybenzonitrile], the IC50 is 0.01 to 1 µM.

On to `Cc1nc(Oc2cc(C#N)ccc2-c2ncc(CCN)cn2)cc(N2CCC[C@H]2C)n1` [compound 859, 4-[5-(2-aminoethyl)pyrimidin-2-yl]-3-[2-methyl-6-[(2R)-2-methylpyrrolidin-1-yl]pyrimidin-4-yl]oxybenzonitrile], for which the IC50 is less than 0.01 µM.

Consider `Cc1nc(Oc2cc(C#N)ccc2-c2ncc(CCN)cn2)cc(N2CCC[C@@H]2C)n1` [compound 860, 4-[5-(2-aminoethyl)pyrimidin-2-yl]-3-[2-methyl-6-[(2S)-2-methylpyrrolidin-1-yl]pyrimidin-4-yl]oxybenzonitrile], for which the IC50 was less than 0.01 µM.

Take `Cc1nc(Oc2cc(C#N)ccc2-c2ncc(CCN)cn2)cc(N(C)CC2CC2)n1` [compound 861, 4-[5-(2-aminoethyl)pyrimidin-2-yl]-3-[6-[cyclopropylmethyl(methyl)amino]-2-methylpyrimidin-4-yl]oxybenzonitrile]: the IC50 is less than 0.01 µM.

As for `COCCN(C)c1cc(Oc2cc(C#N)ccc2-c2ncc(CCN)cn2)nc(C)n1` [compound 862, 4-[5-(2-aminoethyl)pyrimidin-2-yl]-3-[6-[2-methoxyethyl(methyl)amino]-2-methylpyrimidin-4-yl]oxybenzonitrile], the IC50 was 0.01 to 1 µM.

As to `CC(C)OCCN(C)c1cc(Oc2cc(C#N)ccc2-c2ncc(CCN)cn2)n(C)n1` [compound 863, 4-[5-(2-aminoethyl)pyrimidin-2-yl]-3-[2-methyl-5-[methyl(2-propan-2-yloxyethyl)amino]pyrazol-3-yl]oxybenzonitrile], the IC50 is greater than 1 µM.

In the case of `Cc1nn(C2CCCCC2)cc1Oc1cc(C#N)ccc1-c1ncc(CCN)cn1` [compound 864, 4-[5-(2-aminoethyl)pyrimidin-2-yl]-3-(1-cyclohexyl-3-methylpyrazol-4-yl)oxybenzonitrile], the IC50 is 0.01 to 1 µM.

`Cc1nn(C2CCCCC2)cc1Oc1cc(C#N)ccc1-c1ncc(CN)cn1` [compound 865, 4-[5-(aminomethyl)pyrimidin-2-yl]-3-(1-cyclohexyl-3-methylpyrazol-4-yl)oxybenzonitrile]: the IC50 was greater than 1 µM.

For `Cn1nc(N2CC(F)(F)C(F)(F)C2)cc1Oc1cc(C#N)ccc1-c1ncc(CN)cn1` [compound 866, 4-[5-(aminomethyl)pyrimidin-2-yl]-3-[2-methyl-5-(3,3,4,4-tetrafluoropyrrolidin-1-yl)pyrazol-3-yl]oxybenzonitrile], the IC50 was less than 0.01 µM.

Turning to `COC(C)(C)CN(C)c1cc(Oc2cc(C#N)ccc2-c2ncc(CN)cn2)n(C)n1` [compound 867, 4-[5-(aminomethyl)pyrimidin-2-yl]-3-[5-[(2-methoxy-2-methylpropyl)-methylamino]-2-methylpyrazol-3-yl]oxybenzonitrile], the IC50 is greater than 1 µM.

Turning to `COC(C)(C)CN(C)c1cc(Oc2cc(C#N)ccc2-c2ncc(CCN)cn2)n(C)n1` [compound 868, 4-[5-(2-aminoethyl)pyrimidin-2-yl]-3-[5-[(2-methoxy-2-methylpropyl)-methylamino]-2-methylpyrazol-3-yl]oxybenzonitrile], the IC50 was 0.01 to 1 µM.

Regarding `Cn1nc(C2CC2)cc1Oc1cc(C#N)ccc1-c1ccc(N2CC[C@@H](F)[C@H](N)C2)cn1` [compound 869, 4-[5-[(4R)-3-amino-4-fluoropiperidin-1-yl]pyridin-2-yl]-3-(5-cyclopropyl-2-methylpyrazol-3-yl)oxybenzonitrile], the IC50 was greater than 1 µM.

`Cn1nc(C2CC2)cc1Oc1cc(C#N)ccc1-c1ccc(CN)nn1` [compound 870, 4-[6-(aminomethyl)pyridazin-3-yl]-3-(5-cyclopropyl-2-methylpyrazol-3-yl)oxybenzonitrile]: the IC50 is 0.01 to 1 µM.

`Cc1cc(Oc2cc(C#N)ccc2-c2ccc(CN)nn2)cc(N2CCOCC2)n1` [compound 871, 4-[6-(aminomethyl)pyridazin-3-yl]-3-(2-methyl-6-morpholin-4-ylpyridin-4-yl)oxybenzonitrile]: the IC50 was greater than 1 µM.

Consider `Cc1cc(Oc2cc(C#N)ccc2-c2ncc([C@H](F)CN)cn2)cc(N2CCOCC2)n1` [compound 872, 4-[5-[(1S)-2-amino-1-fluoroethyl]pyrimidin-2-yl]-3-(2-methyl-6-morpholin-4-ylpyridin-4-yl)oxybenzonitrile], for which the IC50 is less than 0.01 µM.

Consider `CN(CC(F)F)c1cc(Oc2cc(C#N)ccc2-c2ncc(CN)cn2)n(C)n1` [compound 873, 4-[5-(aminomethyl)pyrimidin-2-yl]-3-[5-[2,2-difluoroethyl(methyl)amino]-2-methylpyrazol-3-yl]oxybenzonitrile], for which the IC50 was less than 0.01 µM.

Consider `CCN(CC(F)F)c1cc(Oc2cc(C#N)ccc2-c2ncc(CN)cn2)n(C)n1` [compound 874, 4-[5-(aminomethyl)pyrimidin-2-yl]-3-[5-[2,2-difluoroethyl(ethyl)amino]-2-methylpyrazol-3-yl]oxybenzonitrile], for which the IC50 is less than 0.01 µM.

For `Cc1cc(Oc2cc(C#N)ccc2-c2ncc([C@@H](F)CN)cn2)cc(N2CCOCC2)n1` [compound 876, 4-[5-[(1R)-2-amino-1-fluoroethyl]pyrimidin-2-yl]-3-(2-methyl-6-morpholin-4-ylpyridin-4-yl)oxybenzonitrile], the IC50 was less than 0.01 µM.

On to `Cn1nc(N2CC(F)(F)C(F)(F)C2)cc1Oc1cc(C#N)ccc1-c1ncc(CCN)cn1` [compound 877, 4-[5-(2-aminoethyl)pyrimidin-2-yl]-3-[2-methyl-5-(3,3,4,4-tetrafluoropyrrolidin-1-yl)pyrazol-3-yl]oxybenzonitrile], for which the IC50 is less than 0.01 µM.

With `Cc1nc(Oc2cc(C#N)ccc2-c2ncc([C@@H](F)CN)cn2)cc(N2CCOCC2)n1` [compound 878, 4-[5-[(1R)-2-amino-1-fluoroethyl]pyrimidin-2-yl]-3-(2-methyl-6-morpholin-4-ylpyrimidin-4-yl)oxybenzonitrile], the IC50 was less than 0.01 µM.

For the compound `Cc1nc(Oc2cc(C#N)ccc2-c2ncc(CCN)cn2)cc(N(C)C2COC2)n1` [compound 879, 4-[5-(2-aminoethyl)pyrimidm-2-yl]-3-[2-methyl-6-[methyl(oxetan-3-yl)amino]pyrimidin-4-yl]oxybenzonitrile], the IC50 is greater than 1 µM.
